This note sets out measurements from PMC2647841, “Sulfatide Recognition by Colonization Factor Antigen CS6 from Enterotoxigenic Escherichia coli” (PLoS ONE, 2009).

In the experiment the target is T1, CS6 protein (coli surface antigen 6; CS6 adhesin) (Escherichia coli, UniProt P53510).
T1 construct: gene cssB; CS6 complex (CssA and CssB structural subunits; operon cssA-cssD, recombinant plasmid pJT-CS6), no tag stated; secreted by E. coli TOP10-CS6, ammonium sulfate precipitate of culture supernatant; 125I-labelled; with CS6 fimbrial subunit A
The experiment in a line: microtiter well binding of […]-labelled CS6 to coated glycosphingolipid. To be noted: amount of glycosphingolipid coated per well, not a concentration; room temperature, 4 h.

T1 sequence (P53508 19-154): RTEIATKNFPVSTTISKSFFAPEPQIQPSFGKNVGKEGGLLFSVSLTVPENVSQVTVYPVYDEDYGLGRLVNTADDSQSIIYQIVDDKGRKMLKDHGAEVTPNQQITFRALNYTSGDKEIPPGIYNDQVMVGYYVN
T1 sequence (P53510 22-167): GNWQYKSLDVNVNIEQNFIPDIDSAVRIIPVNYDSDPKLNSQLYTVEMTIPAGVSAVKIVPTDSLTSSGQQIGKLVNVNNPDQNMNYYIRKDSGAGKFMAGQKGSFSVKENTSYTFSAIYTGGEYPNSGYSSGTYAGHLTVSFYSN

On to Sulfatide [compound 3], for which the half-maximal binding was ~ 100 ng.
